These results are taken from patent US20240158404A1, “MODULATORS OF ALPHA-1 ANTITRYPSIN” (Vertex Pharmaceuticals Incorporated, priority 2022, published 2024).

For one data set, the target named is T1, AAT (Homo sapiens, UniProt P01009, E366K).
T1 construct: expressed in transfected cells; host or cells: NL20 human bronchial epithelial cells (NL20-SI cell line), with doxycycline added alongside the compounds
Put plainly: Compound Quality score (potency in AAT functional assay multiplied by unbound clearance). As to conditions: compound potency (EC50) x unbound clearance; class symbols. The source says:
As used herein, the term “Compound Quality” refers to the potency of a compound multiplied (x) by the compound's unbound clearance as measured using the assays described in Example 6.
The terms “unbound clearance” refer to unbound intrinsic clearance (unbound CLint) in hepatocytes—the intrinsic clearance a drug would have in the absence of protein binding. Unbound CLint=CLint,hep/fu,hep, where CLint,hep is intrinsic clearance in hepatocytes and fu,hep is unbound fraction in hepatocytes.
A key consideration for the selection of compounds suitable for clinical development is the projection of human dose as described in Equations 1-3. Two key parameters that comprise the dose equation are the unbound clearance of a compound and the plasma efficacious exposure (also referred to herein as compound potency). Together these parameters are known to one skilled in the art as a measurement of Compound Quality and suitability for advancement into clinical development. Thus, when evaluating AAT modulator compounds, one needs to consider both the potency and unbound clearance parameters (i.e., Compound Quality). The relationship between these two parameters can be challenging to predict.
The values provided in the table below are calculated by multiplying the EC50 of each of the compounds by the result from the clearance assay procedures described in Section C above and rounded to two significant figures. In the table below, the following meanings apply for Compound Quality (i.e., compound potency x unbound clearance) values: “++++” means ≤0.2; “+++” means >0.20 and ≤0.30; “++” means >0.30 and ≤0.40; “+” means >0.40 and ≤0.50.

Data set [1] is described as follows: Exposure multiple in rat 5-day toxicology studies. The data set is classed as in vivo. Further details: key to Exposure Multiple: ratio of tox-species AUC to target efficacious AUCss. The following applies: for EM Score: based on the maximum exposure multiple achieved in the rat 5-day toxicology study; for Exposure Multiple: rat 5-day toxicology study, vs predicted human efficacious exposure. The source says:
“Exposure multiple” as used herein, refers to an assessment of relative compound exposure in toxicology studies. The calculation of an exposure multiple is accomplished by comparing the exposure (AUC) achieved in a toxicology species relative to the target efficacious exposure at steady state (AUCss). The larger exposure multiple provides the opportunity to explore higher doses relative to efficacious concentration in clinical development. However, the exposure that results in an adverse toxicological outcome is unpredictable.
The calculation of an exposure multiple is accomplished by comparing the plasma exposure (AUC) achieved in a toxicology species relative to the target efficacious exposure at steady state (AUCss). […] In addition, this exposure multiple can allow for further exploration of the desired pharmacology due to the opportunity for a larger window established in toxicology studies. However, the exposure that results in a toxicological outcome in preclinical toxicology studies is unpredictable.
Human exposure multiple (EM) values shown relate to the fold increase in exposure achieved in rat 5-day toxicology studies for a given dose relative to the predicted efficacious exposure anticipated in human (based on cellular NL20 EC50 in vitro efficacy). The exposure multiple score is based on the maximum exposure multiple achieved in the given study. This allows relative comparison across compounds when also considering the administered dose. […] In the tables below, the following meanings apply for exposure multiple scores: “−” means <1; “+” means 1-10; “++” means 10-20; “+++” means 20-30; “++++” means 30-50; and “+++++” means >50.

Structures are written as SMILES.

T1 sequence (P01009 25-418 E366K): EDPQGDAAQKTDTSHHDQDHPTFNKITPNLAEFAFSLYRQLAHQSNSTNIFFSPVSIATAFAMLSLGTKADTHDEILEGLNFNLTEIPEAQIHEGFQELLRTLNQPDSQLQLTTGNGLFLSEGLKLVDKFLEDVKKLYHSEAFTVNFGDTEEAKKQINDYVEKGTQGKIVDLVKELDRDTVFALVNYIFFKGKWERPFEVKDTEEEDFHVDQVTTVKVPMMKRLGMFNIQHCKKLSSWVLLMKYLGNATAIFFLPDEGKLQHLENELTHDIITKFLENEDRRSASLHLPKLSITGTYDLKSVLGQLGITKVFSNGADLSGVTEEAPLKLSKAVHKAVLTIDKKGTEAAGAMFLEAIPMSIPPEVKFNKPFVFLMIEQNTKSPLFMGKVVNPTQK

With `CCC(O)(COC)c1c(-c2ccc(C(=O)O)c(C)c2)c2c(F)c3[nH]ncc3cc2n1-c1ccc(F)c(F)c1` (stereo not shown) [Compound 39], at AAT, the “Compound Quality” value is “+++ (“+++” means >0.20 and ≤0.30)”.
The same measure, in the same setting: under `CCC(O)(COC)c1c(-c2ccc(C(=O)O)c(C)c2)c2c(F)c3[nH]ncc3cc2n1-c1ccc(F)c(OC)c1` (stereo not shown) [Compound 40] stands “+++ (“+++” means >0.20 and ≤0.30)”.
The same measure, in the same setting: under `CCC(O)(CCOC)c1c(-c2ccc(C(=O)O)cc2)c2c(F)c3[nH]ncc3cc2n1-c1ccc(F)cc1` (stereo not shown) [Compound 41] stands “+ (“+” means >0.40 and ≤0.50)”.
`CC[C@@](O)(COC)c1c(-c2ccc(C(=O)O)cc2)c2c(F)c3[nH]ncc3cc2n1-c1cc(C)c(F)c(F)c1` [Compound 42]: on AAT, the “Compound Quality” value is “++ (“++” means >0.30 and ≤0.40)”.
`COC1CCCC1(O)c1c(-c2ccc(C(=O)O)cc2)c2c(F)c3[nH]ncc3cc2n1-c1ccc(F)c(C)c1` (stereo not shown) [Compound 43]: on AAT, the “Compound Quality” value was “+ (“+” means >0.40 and ≤0.50)”.
For the compound `CCC(O)(COC)c1c(-c2ccc(C(=O)O)c(C)c2)c2c(F)c3[nH]ncc3cc2n1-c1cccc(F)c1` (stereo not shown) [Compound 44], the “Compound Quality” value on AAT is “+ (“+” means >0.40 and ≤0.50)”.
`[2H]C([2H])([2H])OCC(O)(CC)c1c(-c2ccc(C(=O)O)cc2)c2c(F)c3[nH]ncc3cc2n1-c1ccc(F)c(OC([2H])([2H])[2H])c1` (stereo not shown) [Compound 45]: the “Compound Quality” value on AAT is “+++ (“+++” means >0.20 and ≤0.30)”.
Still for that read-out and setting: under `[2H]C([2H])([2H])Oc1cc(-n2c(C(O)(COC)C([2H])([2H])C([2H])([2H])[2H])c(-c3ccc(C(=O)O)cc3)c3c(F)c4[nH]ncc4cc32)ccc1F` (stereo not shown) [Compound 46] stands “+++ (“+++” means >0.20 and ≤0.30)”.
Still for that read-out and setting: under `[2H]C([2H])([2H])C([2H])([2H])C(O)(COC)c1c(-c2ccc(C(=O)O)cc2)c2c(F)c3[nH]ncc3cc2n1-c1ccc(F)c(OC)c1` (stereo not shown) [Compound 47] stands “+++ (“+++” means >0.20 and ≤0.30)”; under `CCc1cc(-c2c(C(O)(CC)COC)n(-c3ccc(F)c(F)c3)c3cc4cn[nH]c4c(F)c23)ccc1C(=O)O` (stereo not shown) [Compound 48], “+ (“+” means >0.40 and ≤0.50)”; under `CCc1cc(-c2c(C(O)(CC)COC)n(-c3ccc(F)c(OC)c3)c3cc4cn[nH]c4c(F)c23)ccc1C(=O)O` (stereo not shown) [Compound 49], “++ (“++” means >0.30 and ≤0.40)”.
On the same count and under the same terms, under `[2H]C([2H])([2H])Oc1cc(-n2c(C(O)(CC)COC)c(-c3ccc(C(=O)O)c(C)c3)c3c(F)c4[nH]ncc4cc32)ccc1F` (stereo not shown) [Compound 50] stands “++ (“++” means >0.30 and ≤0.40)”; under `[2H]C([2H])([2H])Oc1cc(-n2c(C3(O)CCCC[C@@H]3OC)c(-c3ccc(C(=O)O)cc3)c3c(F)c4[nH]ncc4cc32)ccc1F` (stereo partly shown) [Compound 51], “++ (“++” means >0.30 and ≤0.40)”; under `[2H]C([2H])([2H])OCC(O)(CC)c1c(-c2ccc(C(=O)O)cc2)c2c(F)c3[nH]ncc3cc2n1-c1ccc(F)cc1` (stereo not shown) [Compound 52], “++ (“++” means >0.30 and ≤0.40)”.
`[2H]C([2H])([2H])OCC(O)(CC)c1c(-c2ccc(C(=O)O)cc2)c2c(F)c3[nH]ncc3cc2n1-c1ccc(F)c(OC)c1` (stereo not shown) [Compound 53]: at AAT, the “Compound Quality” value is “++ (“++” means >0.30 and ≤0.40)”.
Regarding `[2H]C([2H])([2H])Oc1cc(-n2c(C3(O)CCCC[C@@H]3OC)c(-c3ccc(C(=O)O)c(C)c3)c3c(F)c4[nH]ncc4cc32)ccc1F` (stereo partly shown) [Compound 54], the “Compound Quality” value on AAT is recorded as “++++ (“++++” means ≤0.2)”.
Same read-out and setting: under `COc1cc(-n2c(C3(O)CCCC[C@@H]3OC)c(-c3ccc(C(=O)O)c(C)c3)c3c(F)c4[nH]ncc4cc32)ccc1F` (stereo partly shown) [Compound 55] stands “++ (“++” means >0.30 and ≤0.40)”.
The same measure, in the same setting: under `CO[C@H]1CCCCC1(O)c1c(-c2ccc(C(=O)O)c(C)c2)c2c(F)c3[nH]ncc3cc2n1-c1ccc(F)cc1` (stereo partly shown) [Compound 56] stands “+++ (“+++” means >0.20 and ≤0.30)”.
On to `[2H]C([2H])([2H])OC[C@@](O)(c1c(-c2ccc(C(=O)O)cc2)c2c(F)c3[nH]ncc3cc2n1-c1ccc(F)c(C)c1)C([2H])([2H])C([2H])([2H])[2H]` [Compound 57], for which, on AAT, the “Compound Quality” value was “+ (“+” means >0.40 and ≤0.50)”.
Still for that read-out and setting: under `CCOC1CCCC1(O)c1c(-c2ccc(C(=O)O)cc2)c2c(F)c3[nH]ncc3cc2n1-c1ccc(F)c(OC)c1` (stereo not shown) [Compound 58] stands “+ (“+” means >0.40 and ≤0.50)”.
Turning to `COC1COCCC1(O)c1c(-c2ccc(C(=O)O)cc2)c2c(F)c3[nH]ncc3cc2n1-c1ccc(F)c(C)c1` (stereo not shown) [Compound 59], the “Compound Quality” value at AAT was “++ (“++” means >0.30 and ≤0.40)”.
As for `CO[C@H]1CCCCC1(O)c1c(-c2ccc(C(=O)O)cc2)c2c(F)c3[nH]ncc3cc2n1-c1ccc(F)c(F)c1F` (stereo partly shown) [Compound 60], the “Compound Quality” value on AAT was “+++ (“+++” means >0.20 and ≤0.30)”.
Turning to `CO[C@H]1CCCCC1(O)c1c(-c2ccc(C(=O)O)cc2)c2c(F)c3[nH]ncc3cc2n1-c1cc(F)c(F)cc1F` (stereo partly shown) [Compound 61], at AAT, the “Compound Quality” value is “+++ (“+++” means >0.20 and ≤0.30)”.
For `CCC(O)(COC)c1c(-c2ccc(C(=O)O)cc2F)c2c(F)c3[nH]ncc3cc2n1-c1ccc(F)c(F)c1` (stereo not shown) [Compound 62], the “Compound Quality” value on AAT is “+ (“+” means >0.40 and ≤0.50)”.
For the compound `CCC(O)(COC)c1c(-c2ccc(C(=O)O)cc2F)c2c(F)c3[nH]ncc3cc2n1-c1ccc(F)c(C)c1` (stereo not shown) [Compound 63], the “Compound Quality” value at AAT was “+ (“+” means >0.40 and ≤0.50)”.
On to `CCOCC(O)(CC)c1c(-c2ccc(C(=O)O)cc2)c2c(F)c3[nH]ncc3cc2n1-c1cccc2cnn(C)c12` (stereo not shown) [Compound 64], for which the “Compound Quality” value at AAT is “++ (“++” means >0.30 and ≤0.40)”.
Same read-out and setting: under `[2H]C([2H])([2H])Oc1cc(-n2c(C(O)(CC)COC)c(-c3ccc(C(=O)O)c(CC)c3)c3c(F)c4[nH]ncc4cc32)ccc1F` (stereo not shown) [Compound 65] stands “+ (“+” means >0.40 and ≤0.50)”; under `COc1cc(-n2c(C3(O)CCCCC3F)c(-c3ccc(C(=O)O)cc3)c3c(F)c4[nH]ncc4cc32)ccc1F` (stereo not shown) [Compound 66], “++ (“++” means >0.30 and ≤0.40)”.
With `CO[C@H]1CCCCC1(O)c1c(-c2ccc(C(=O)O)c(F)c2)c2c(F)c3[nH]ncc3cc2n1-c1ccc(F)cc1` (stereo partly shown) [Compound 67], at AAT, the “Compound Quality” value is “++ (“++” means >0.30 and ≤0.40)”.
As to `CC[C@](O)(COC)c1c(-c2ccc(C(=O)O)cc2)c2cc3[nH]ncc3cc2n1-c1ccc(F)c(Cl)c1` [reference compound], the “EM Score” value in data set [1] is listed as “+ (“+” means 1-10)”. Also, the “Exposure Multiple” value in data set [1] (Bid dose 100 (daily 200)) is 2; in data set [1] (Bid dose 250 (daily 500)) it was 1; in data set [1] (Bid dose 500 (daily 1000)), 2.
In the case of `CCC(O)(COC)c1c(-c2ccc(C(=O)O)cc2)c2cc3[nH]ncc3cc2n1-c1ccc(F)cc1` (stereo not shown) [reference compound], the “EM Score” value in data set [1] was “++ (“++” means 10-20)”. Also, the “Exposure Multiple” value in data set [1] (Bid dose 250 (daily 500)) is recorded as 14.
As for `O=C(O)c1ccc(-c2c(C3CCOCC3)n(-c3ccc(F)c(F)c3)c3cc4cn[nH]c4cc23)cc1` [reference compound], in data set [1], the “EM Score” value was “− (“−” means <1)”. In addition, the “Exposure Multiple” value in data set [1] (Bid dose 300 (daily 600)) is given as 0.4.
Take `COCC(C)(C)c1c(-c2ccc(C(=O)O)cc2)c2cc3[nH]ncc3cc2n1-c1ccc(F)cc1` [reference compound]: in data set [1], the “EM Score” value is “++ (“++” means 10-20)”. Further, the “Exposure Multiple” value in data set [1] (Bid dose 25 (daily 50)) is 5; in data set [1] (Bid dose 50 (daily 100)), 13; in data set [1] (Bid dose 100 (daily 200)), 18.
Take `CC(C)(CC#N)c1c(-c2ccc(C(=O)O)cc2)c2cc3[nH]ncc3cc2n1-c1ccc(F)cc1` [reference compound]: the “EM Score” value in data set [1] is on record as “+ (“+” means 1-10)”. Besides, the “Exposure Multiple” value in data set [1] (Bid dose 287.5 (daily 575)) is given as 1.8.
